Experimental data from PubChem BioAssay (NCI).
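The compound was tested at five concentrations on cells cultured in 96-well plates, with a 48-hour exposure period. TGI is the concentration that stops growth completely.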

Columns and labels:
Assay in all cases: inhibition of tumour cell growth, NCI panel, 48 h
786-0 renal = tested on: 786-0 renal
A498 renal = tested on: A498 renal
A549 NSCLC = tested on: A549 NSCLC
ACHN renal = tested on: ACHN renal
BT-549 breast = tested on: BT-549 breast
CAKI-1 renal = tested on: CAKI-1 renal
CCRF-CEM leukemia = tested on: CCRF-CEM leukemia
COLO 205 colon = tested on: COLO 205 colon
DU-145 prostate = tested on: DU-145 prostate
EKVX NSCLC = tested on: EKVX NSCLC
HCC-2998 colon = tested on: HCC-2998 colon
HCT-116 colon = tested on: HCT-116 colon
HCT-15 colon = tested on: HCT-15 colon
HL-60(TB) leukemia = tested on: HL-60(TB) leukemia
HOP-62 NSCLC = tested on: HOP-62 NSCLC
HOP-92 NSCLC = tested on: HOP-92 NSCLC
HS 578T breast = tested on: HS 578T breast
HT29 colon = tested on: HT29 colon
IGROV1 ovarian = tested on: IGROV1 ovarian
K-562 leukemia = tested on: K-562 leukemia
KM12 colon = tested on: KM12 colon
LOX IMVI melanoma = tested on: LOX IMVI melanoma
M14 melanoma = tested on: M14 melanoma
MALME-3M melanoma = tested on: MALME-3M melanoma
MCF7 breast = tested on: MCF7 breast
MDA-MB-231 breast = tested on: MDA-MB-231 breast
MDA-MB-435 = tested on: MDA-MB-435
MDA-N = tested on: MDA-N
MOLT-4 leukemia = tested on: MOLT-4 leukemia
NCI-H226 lung = tested on: NCI-H226 lung
NCI-H23 lung = tested on: NCI-H23 lung
NCI-H460 lung = tested on: NCI-H460 lung
NCI-H522 lung = tested on: NCI-H522 lung
NCI/ADR-RES ovarian = tested on: NCI/ADR-RES ovarian
OVCAR-3 ovarian = tested on: OVCAR-3 ovarian
OVCAR-4 ovarian = tested on: OVCAR-4 ovarian
OVCAR-5 ovarian = tested on: OVCAR-5 ovarian
OVCAR-8 ovarian = tested on: OVCAR-8 ovarian
PC-3 prostate = tested on: PC-3 prostate
RPMI-8226 leukemia = tested on: RPMI-8226 leukemia
RXF 393 renal = tested on: RXF 393 renal
SF-268 CNS = tested on: SF-268 CNS
SF-295 CNS = tested on: SF-295 CNS
SF-539 CNS = tested on: SF-539 CNS
SK-MEL-2 melanoma = tested on: SK-MEL-2 melanoma
SK-MEL-28 melanoma = tested on: SK-MEL-28 melanoma
SK-MEL-5 melanoma = tested on: SK-MEL-5 melanoma
SK-OV-3 ovarian = tested on: SK-OV-3 ovarian
SN12C renal = tested on: SN12C renal
SNB-19 CNS = tested on: SNB-19 CNS
SNB-75 CNS = tested on: SNB-75 CNS
SR leukemia = tested on: SR leukemia
SW-620 colon = tested on: SW-620 colon
T-47D breast = tested on: T-47D breast
TK-10 renal = tested on: TK-10 renal
U251 CNS = tested on: U251 CNS
UACC-257 melanoma = tested on: UACC-257 melanoma
UACC-62 melanoma = tested on: UACC-62 melanoma
UO-31 renal = tested on: UO-31 renal

SMILES: C=C1CCC(O)C/C1=C/C=C1\CCCC2(C)C1CCC2C(C)CCCC(C)C (configuration not stated)
- TGI (786-0 renal): 30.6 µM
- TGI (A498 renal): 36.7 µM
- TGI (A549 NSCLC): 36.3 µM
- TGI (ACHN renal): 30.6 µM
- TGI (BT-549 breast): 37.4 µM
- TGI (CAKI-1 renal): 35.2 µM
- TGI (CCRF-CEM leukemia): > 65.4 µM
- TGI (COLO 205 colon): 34 µM
- TGI (DU-145 prostate): 41.3 µM
- TGI (EKVX NSCLC): 35.4 µM
- TGI (HCC-2998 colon): 38.6 µM
- TGI (HCT-116 colon): 28.5 µM
- TGI (HCT-15 colon): 35.3 µM
- TGI (HL-60(TB) leukemia): > 60.2 µM
- TGI (HOP-62 NSCLC): 35.4 µM
- TGI (HOP-92 NSCLC): 33 µM
- TGI (HS 578T breast): 36.4 µM
- TGI (HT29 colon): 29.9 µM
- TGI (IGROV1 ovarian): 31.3 µM
- TGI (K-562 leukemia): > 59.2 µM
- TGI (KM12 colon): 38 µM
- TGI (LOX IMVI melanoma): 34.5 µM
- TGI (M14 melanoma): 34.8 µM
- TGI (MALME-3M melanoma): 38 µM
- TGI (MCF7 breast): 29.3 µM
- TGI (MDA-MB-231 breast): 35.6 µM
- TGI (MDA-MB-435): 31.3 µM
- TGI (MDA-N): 34.3 µM
- TGI (MOLT-4 leukemia): > 61.5 µM
- TGI (NCI-H226 lung): 31.3 µM
- TGI (NCI-H23 lung): 33.7 µM
- TGI (NCI-H460 lung): 46.7 µM
- TGI (NCI-H522 lung): 33 µM
- TGI (NCI/ADR-RES ovarian): 34.9 µM
- TGI (OVCAR-3 ovarian): 35.4 µM
- TGI (OVCAR-4 ovarian): 35.7 µM
- TGI (OVCAR-5 ovarian): 37.4 µM
- TGI (OVCAR-8 ovarian): 33.2 µM
- TGI (PC-3 prostate): 34.3 µM
- TGI (RPMI-8226 leukemia): 64.9 µM
- TGI (RXF 393 renal): 33.4 µM
- TGI (SF-268 CNS): 46.5 µM
- TGI (SF-295 CNS): 35.1 µM
- TGI (SF-539 CNS): 36.5 µM
- TGI (SK-MEL-2 melanoma): 37.2 µM
- TGI (SK-MEL-28 melanoma): 30.4 µM
- TGI (SK-MEL-5 melanoma): 36.3 µM
- TGI (SK-OV-3 ovarian): 41.9 µM
- TGI (SN12C renal): 30.8 µM
- TGI (SNB-19 CNS): 33.2 µM
- TGI (SNB-75 CNS): 37.6 µM
- TGI (SR leukemia): > 63.6 µM
- TGI (SW-620 colon): 31.8 µM
- TGI (T-47D breast): 38.8 µM
- TGI (TK-10 renal): 25.1 µM
- TGI (U251 CNS): 34.4 µM
- TGI (UACC-257 melanoma): 32.2 µM
- TGI (UACC-62 melanoma): 34.9 µM
- TGI (UO-31 renal): 28.3 µM

SMILES: O=C(OC1C=C=CS(=O)(=O)CC#C/C=C\1)c1cnc2ccccc2n1 (configuration not stated)
- TGI (A498 renal): > 100 µM
- TGI (A549 NSCLC): > 100 µM
- TGI (ACHN renal): > 100 µM
- TGI (BT-549 breast): > 100 µM
- TGI (CAKI-1 renal): > 100 µM
- TGI (CCRF-CEM leukemia): > 100 µM
- TGI (COLO 205 colon): > 100 µM
- TGI (DU-145 prostate): > 100 µM
- TGI (EKVX NSCLC): > 100 µM
- TGI (HCC-2998 colon): > 100 µM
- TGI (HCT-116 colon): > 100 µM
- TGI (HCT-15 colon): > 100 µM
- TGI (HL-60(TB) leukemia): > 100 µM
- TGI (HOP-62 NSCLC): > 100 µM
- TGI (HOP-92 NSCLC): 90.1 µM
- TGI (HS 578T breast): > 100 µM
- TGI (HT29 colon): > 100 µM
- TGI (IGROV1 ovarian): > 100 µM
- TGI (K-562 leukemia): > 100 µM
- TGI (KM12 colon): > 100 µM
- TGI (LOX IMVI melanoma): > 100 µM
- TGI (M14 melanoma): > 100 µM
- TGI (MALME-3M melanoma): > 100 µM
- TGI (MCF7 breast): > 100 µM
- TGI (MDA-MB-231 breast): > 100 µM
- TGI (MDA-MB-435): > 100 µM
- TGI (MDA-N): > 100 µM
- TGI (MOLT-4 leukemia): > 100 µM
- TGI (NCI-H226 lung): > 100 µM
- TGI (NCI-H23 lung): > 100 µM
- TGI (NCI-H460 lung): > 100 µM
- TGI (NCI-H522 lung): 51.6 µM
- TGI (NCI/ADR-RES ovarian): > 100 µM
- TGI (OVCAR-3 ovarian): > 100 µM
- TGI (OVCAR-4 ovarian): > 100 µM
- TGI (OVCAR-5 ovarian): > 100 µM
- TGI (OVCAR-8 ovarian): > 100 µM
- TGI (PC-3 prostate): > 100 µM
- TGI (RPMI-8226 leukemia): > 100 µM
- TGI (RXF 393 renal): > 100 µM
- TGI (SF-268 CNS): > 100 µM
- TGI (SF-295 CNS): > 100 µM
- TGI (SF-539 CNS): > 100 µM
- TGI (SK-MEL-2 melanoma): > 100 µM
- TGI (SK-MEL-28 melanoma): > 100 µM
- TGI (SK-MEL-5 melanoma): > 100 µM
- TGI (SK-OV-3 ovarian): > 100 µM
- TGI (SN12C renal): > 100 µM
- TGI (SNB-19 CNS): > 100 µM
- TGI (SNB-75 CNS): > 100 µM
- TGI (SR leukemia): > 100 µM
- TGI (SW-620 colon): > 100 µM
- TGI (T-47D breast): > 100 µM
- TGI (TK-10 renal): > 100 µM
- TGI (U251 CNS): > 100 µM
- TGI (UACC-257 melanoma): > 100 µM
- TGI (UACC-62 melanoma): > 100 µM
- TGI (UO-31 renal): > 100 µM
